The results in this text go back to US20240116985A1, “STAPLED PEPTIDES AND METHODS THEREOF” (priority 2020, published 2024).

Molecules are shown by their SMILES.

This assay deals with T1, full-length beta-Catenin (Uniprot ID P35222) (Homo sapiens, UniProt P35222).
T1 construct: 10 nM full-length beta-Catenin (Uniprot ID P35222)
T1 sequence (P35222 1-781): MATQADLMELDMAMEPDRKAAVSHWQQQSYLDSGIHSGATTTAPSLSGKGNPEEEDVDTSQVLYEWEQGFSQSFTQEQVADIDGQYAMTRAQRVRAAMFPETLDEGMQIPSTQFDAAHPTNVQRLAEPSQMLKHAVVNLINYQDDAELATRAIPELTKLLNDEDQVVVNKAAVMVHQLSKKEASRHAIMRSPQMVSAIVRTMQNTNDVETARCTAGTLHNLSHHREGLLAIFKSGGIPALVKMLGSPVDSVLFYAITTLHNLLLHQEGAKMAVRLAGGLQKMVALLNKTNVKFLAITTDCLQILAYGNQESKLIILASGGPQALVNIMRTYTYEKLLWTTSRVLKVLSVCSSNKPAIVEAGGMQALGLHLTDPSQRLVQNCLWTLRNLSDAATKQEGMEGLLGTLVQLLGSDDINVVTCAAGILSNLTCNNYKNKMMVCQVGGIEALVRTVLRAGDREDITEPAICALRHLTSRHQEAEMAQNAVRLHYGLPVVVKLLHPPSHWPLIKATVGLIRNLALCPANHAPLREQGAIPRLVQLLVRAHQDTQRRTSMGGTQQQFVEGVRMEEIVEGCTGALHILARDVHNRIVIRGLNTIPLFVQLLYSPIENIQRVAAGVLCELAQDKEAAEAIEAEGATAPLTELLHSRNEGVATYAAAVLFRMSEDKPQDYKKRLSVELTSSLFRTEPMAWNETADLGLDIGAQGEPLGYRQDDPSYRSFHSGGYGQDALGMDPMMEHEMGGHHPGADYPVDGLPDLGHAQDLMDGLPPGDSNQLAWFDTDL
The assay is described as follows: Fluorescence polarization IC50 (beta-catenin / 5FAM-TCF4 10-53 competition). Format: binding. As to conditions: fluorescence polarization; read-out: beta-Catenin FP IC50. For orientation: Polarisation of emitted light reports the rotation of a fluorescent probe.

Broadly, the IC50 is the concentration at which inhibition is half-maximal. For `CC(=O)N1CCC[C@]12CC=CCCCC1(CCCC=CCCCOC(=O)N3CC[C@](C(=O)N[C@@H](Cc4ccsc4)C(=O)N[C@@H](Cc4csc5ccccc45)C(=O)N[C@@H](CCC(N)=O)C(N)=O)(C3)NC(=O)[C@H](CC(N)=O)NC(=O)[C@H](Cc3ccccc3)NC(=O)[C@H](C)NC(=O)[C@H](C)NC(=O)[C@H](CC(=O)O)NC(=O)[C@H](CC(=O)O)NC1=O)NC(=O)[C@H](CC(C)(C)C)NC(=O)[C@H](CC(=O)O)NC2=O` (stereo partly drawn) [I-2017, Ac-PL3-Asp-Npg-B5-Asp-Asp-Ala-Ala-Phe-Asn-PyrR2-3Thi-BztA-Gln-NH2], the IC50 turned out to be 2050 nM.

As for `CC(=O)N1CCC[C@]12CC=CCCCC1(CCCC=CCCCOC(=O)N3CC[C@](C(=O)N[C@@H](Cc4ccsc4)C(=O)N[C@@H](Cc4csc5ccccc45)C(=O)N[C@@H](CCC(N)=O)C(N)=O)(C3)NC(=O)[C@H](CC(N)=O)NC(=O)[C@H](Cc3ccccc3)NC(=O)[C@H](C)NC(=O)[C@H](C)NC(=O)[C@H](CC(=O)O)NC(=O)[C@H](CC(=O)O)NC1=O)NC(=O)[C@H](CC(C)(C)C)NC(=O)[C@H](CC(=O)O)NC2=O` (stereo partly drawn) [I-2018, Ac-PL3-Asp-Npg-B5-Asp-Asp-Ala-Ala-Phe-Asn-PyrR2-3Thi-BztA-Gln-NH2], the IC50 turned out to be 1680 nM.

On to `CC(=O)N1CCC[C@]12CC=CCCCC1(CCCC=CCCCOC(=O)N3CC[C@](C(=O)N[C@@H](Cc4ccsc4)C(=O)N[C@@H](Cc4csc5ccccc45)C(=O)N[C@@H](CCC(N)=O)C(N)=O)(C3)NC(=O)[C@H](CC(C)C)NC(=O)[C@H](Cc3ccccc3)NC(=O)[C@H](C)NC(=O)[C@H](C)NC(=O)[C@H](CC(=O)O)NC(=O)[C@H](CC(=O)O)NC1=O)NC(=O)[C@H](CC(C)(C)C)NC(=O)[C@H](CC(=O)O)NC2=O` (stereo partly drawn) [I-2019, Ac-PL3-Asp-Npg-B5-Asp-Asp-Ala-Ala-Phe-Leu-PyrR2-3Thi-BztA-Gln-NH2], for which the half-inhibitory concentration (IC50) was found to be 1450 nM.

As for `CC(=O)N1CCC[C@]12CC=CCCCC1(CCCC=CCCCOC(=O)N3CC[C@](C(=O)N[C@@H](Cc4ccsc4)C(=O)N[C@@H](Cc4csc5ccccc45)C(=O)N[C@@H](CCC(N)=O)C(N)=O)(C3)NC(=O)[C@H](CC(C)C)NC(=O)[C@H](Cc3ccccc3)NC(=O)[C@H](C)NC(=O)[C@H](C)NC(=O)[C@H](CC(=O)O)NC(=O)[C@H](CC(=O)O)NC1=O)NC(=O)[C@H](CC(C)(C)C)NC(=O)[C@H](CC(=O)O)NC2=O` (stereo partly drawn) [I-2020, Ac-PL3-Asp-Npg-B5-Asp-Asp-Ala-Ala-Phe-Leu-PyrR2-3Thi-BztA-Gln-NH2], the IC50 was 1200 nM.

As for `CC(=O)N1CCC[C@]12CCCCCCC1(CCCCCCCCOC(=O)N3CC[C@](C(=O)N[C@@H](Cc4ccsc4)C(=O)N[C@@H](Cc4csc5ccccc45)C(=O)N[C@@H](CCC(N)=O)C(N)=O)(C3)NC(=O)[C@H](CC(N)=O)NC(=O)[C@H](Cc3ccccc3)NC(=O)[C@H](C)NC(=O)[C@H](C)NC(=O)[C@H](CC(=O)O)NC(=O)[C@H](CC(=O)O)NC1=O)NC(=O)[C@H](CC(C)(C)C)NC(=O)[C@H](CC(=O)O)NC2=O` (stereo partly drawn) [I-2021, Ac-PL3-Asp-Npg-B5-Asp-Asp-Ala-Ala-Phe-Asn-PyrR2-3Thi-BztA-Gln-NH2], the IC50 came out at 5380 nM.

For the molecule `CC(=O)N1CCC[C@]12CCCCCCC1(CCCCCCCCOC(=O)N3CC[C@](C(=O)N[C@@H](Cc4ccsc4)C(=O)N[C@@H](Cc4csc5ccccc45)C(=O)N[C@@H](CCC(N)=O)C(N)=O)(C3)NC(=O)[C@H](CC(C)C)NC(=O)[C@H](Cc3ccccc3)NC(=O)[C@H](C)NC(=O)[C@H](C)NC(=O)[C@H](CC(=O)O)NC(=O)[C@H](CC(=O)O)NC1=O)NC(=O)[C@H](CC(C)(C)C)NC(=O)[C@H](CC(=O)O)NC2=O` (stereo partly drawn) [I-2022, Ac-PL3-Asp-Npg-B5-Asp-Asp-Ala-Ala-Phe-Leu-PyrR2-3Thi-BztA-Gln-NH2], the half-inhibitory concentration (IC50) is 1890 nM.

On to `CC(=O)N1CCC[C@]12CC=CCCCC1(CCCC=CCCCOC(=O)N3CC[C@@](C(=O)N[C@@H](Cc4ccccc4Cl)C(=O)N[C@@H](Cc4csc5ccccc45)C(=O)N[C@@H](Cc4ccccc4)C(N)=O)(C3)NC(=O)[C@H](C)NC(=O)[C@H](Cc3ccccc3)NC(=O)[C@H](C)NC(=O)[C@H](C)NC(=O)[C@H](Cc3cccc(C(=O)O)c3)NC(=O)[C@H](CC(=O)O)NC1=O)NC(=O)[C@H](CC(C)(C)C)NC(=O)[C@H](CC(=O)O)NC2=O` (stereo partly drawn) [I-2025, Ac-PL3-Asp-Npg-B5-Asp-3COOHF-Ala-Ala-Phe-Ala-PyrS2-2C1F-BztA-Phe-NH2], for which the IC50 is 109 nM.

Turning to `CC(=O)N1CCC[C@]12CC=CCCCC1(CCCC=CCCCOC(=O)N3CC[C@@](C(=O)N[C@@H](Cc4ccccc4Cl)C(=O)N[C@@H](Cc4csc5ccccc45)C(=O)N[C@H](C)C(N)=O)(C3)NC(=O)[C@H](CC(N)=O)NC(=O)[C@H](Cc3ccccc3)NC(=O)[C@H](C)NC(=O)[C@H](C)NC(=O)[C@H](Cc3cccc(C(=O)O)c3)NC(=O)[C@H](CC(=O)O)NC1=O)NC(=O)[C@H](CC(C)(C)C)NC(=O)[C@H](CC(=O)O)NC2=O` (stereo partly drawn) [I-2034, Ac-PL3-Asp-Npg-B5-Asp-3COOHF-Ala-Ala-Phe-Asn-PyrS2-2C1F-BztA-dAla-NH2], the 50% inhibitory concentration (IC50) came out at 18 nM.

Turning to `CC(=O)N1CCC[C@]12CC=CCCCC1(CCCC=CCCCOC(=O)N3CC[C@@](C(=O)N[C@@H](Cc4ccsc4)C(=O)N[C@@H](Cc4csc5ccccc45)C(=O)N[C@@H](C)C(N)=O)(C3)NC(=O)[C@H](C(C)C)NC(=O)[C@H](Cc3ccccc3)NC(=O)[C@H](C)NC(=O)[C@H](CCC(N)=O)NC(=O)[C@H](Cc3cccc(C(=O)O)c3)NC(=O)[C@H](CC(=O)O)NC1=O)NC(=O)[C@H](CC(C)(C)C)NC(=O)[C@H](CC(=O)O)NC2=O` (stereo partly drawn) [I-2054, Ac-PL3-Asp-Npg-B5-Asp-3COOHF-Gln-Ala-Phe-Val-PyrS2-3Thi-BztA-Ala-NH2], the IC50 amounted to 5 nM.

With `CC(=O)N1CCC[C@]12CC=CCCCC1(CCCC=CCCCOC(=O)N3CC[C@@](C(=O)N[C@@H](Cc4ccccc4)C(=O)N[C@@H](Cc4csc5ccccc45)C(=O)N[C@@H](CCO)C(N)=O)(C3)NC(=O)[C@H](CC(N)=O)NC(=O)[C@H](Cc3ccccc3)NC(=O)[C@H](C)NC(=O)[C@H](Cc3c[nH]cn3)NC(=O)[C@H](CCC(N)=O)NC(=O)[C@H](CC(=O)O)NC1=O)NC(=O)[C@H](CC1CCCCC1)NC(=O)[C@H](CC(N)=O)NC2=O` (stereo partly drawn) [I-2066, Ac-PL3-Asn-Cha-B5-Asp-Gln-His-Ala-Phe-Asn-PyrS2-Phe-BztA-Hse-NH2], the IC50 is 357 nM.

Regarding `CC(=O)N1CCC[C@]12CC=CCCCC1(CCCC=CCCCOC(=O)N3CC[C@@](C(=O)N[C@@H](Cc4cscn4)C(=O)N[C@@H](Cc4csc5ccccc45)C(=O)N[C@@H](CCO)C(N)=O)(C3)NC(=O)[C@H](CC(N)=O)NC(=O)[C@H](Cc3ccccc3)NC(=O)[C@H](C)NC(=O)[C@H](CCCCNC(C)C)NC(=O)[C@H](CCC(N)=O)NC(=O)[C@H](CC(=O)O)NC1=O)NC(=O)[C@H](CC1CCCCC1)NC(=O)[C@H](CC(N)=O)NC2=O` (stereo partly drawn) [I-2071, Ac-PL3-Asn-Cha-B5-Asp-Gln-iPrLys-Ala-Phe-Asn-PyrS2-4Thz-BztA-Hse-NH2], the IC50 came out at 592 nM.

As for `CC(=O)N1CCC[C@]12CC=CCCCC1(CCCC=CCCCOC(=O)N3CC[C@@](C(=O)N[C@@H](Cc4ccccc4)C(=O)N[C@@H](Cc4csc5ccccc45)C(=O)N[C@@H](CCO)C(N)=O)(C3)NC(=O)[C@H](CC(N)=O)NC(=O)[C@H](Cc3cscn3)NC(=O)[C@H](C)NC(=O)[C@H](CCCCNC(C)C)NC(=O)[C@H](CCC(N)=O)NC(=O)[C@H](CC(=O)O)NC1=O)NC(=O)[C@H](CC1CCCCC1)NC(=O)[C@H](CC(N)=O)NC2=O` (stereo partly drawn) [I-2072, Ac-PL3-Asn-Cha-B5-Asp-Gln-iPrLys-Ala-4Thz-Asn-PyrS2-Phe-BztA-Hse-NH2], the 50% inhibitory concentration (IC50) worked out at 8260 nM.

For `CC(=O)N1CCC[C@]12CC=CCCCC1(CCCC=CCCCOC(=O)N3CC[C@@](C(=O)N[C@@H](Cc4ccccc4)C(=O)N[C@@H](Cc4csc5ccccc45)C(N)=O)(C3)NC(=O)[C@H](CC(N)=O)NC(=O)[C@H](Cc3ccccc3)NC(=O)[C@H](C)NC(=O)[C@H](CCCCNC(C)C)NC(=O)[C@H](CCC(N)=O)NC(=O)[C@H](CC(=O)O)NC1=O)NC(=O)[C@H](CC1CCCCC1)NC(=O)[C@H](CC(N)=O)NC2=O` (stereo partly drawn) [I-2073, Ac-PL3-Asn-Cha-B5-Asp-Gln-iPrLys-Ala-Phe-Asn-PyrS2-Phe-BztA-NH2], the IC50 turned out to be 398 nM.

Turning to `CC(=O)N1CCC[C@]12CC=CCCCC1(CCCC=CCCCOC(=O)N3CC[C@@](C(=O)N[C@@H](Cc4ccsc4)C(=O)N[C@@H](Cc4csc5ccccc45)C(=O)N[C@@H](CCO)C(N)=O)(C3)NC(=O)[C@H](CC(N)=O)NC(=O)[C@H](Cc3ccccc3)NC(=O)[C@H](C)NC(=O)[C@H](CCCCNC(C)C)NC(=O)[C@H](CCC(N)=O)NC(=O)[C@H](CC(=O)O)NC1=O)NC(=O)[C@H](CC1CCCCC1)NC(=O)[C@H](CC(N)=O)NC2=O` (stereo partly drawn) [I-2074, Ac-PL3-Asn-Cha-B5-Asp-Gln-iPrLys-Ala-Phe-Asn-PyrS2-3Thi-BztA-Hse-NH2], the half-inhibitory concentration (IC50) is 789 nM.
